Literature values, collected in patent publication US11590211B2, “Systems for treating dermal inflammatory conditions” (Nuvothera, Inc., priority 2016, dated 2023).

What was measured:
human keratinocytes = conditions: through suppression of pro-inflammatory pathways; references 8, 9
skin cells = conditions: reference 10
modified mouse tail test = conditions: reference 7
NF-κB = conditions: reference 5

COc1cc(/C=C/C(=O)CC(=O)/C=C/c2ccc(O)c(OC)c2)ccc1O [curcumin]
Effect on proliferation of human keratinocytes (human keratinocytes): inhibition of the proliferation
Effect on anti-apoptotic function of TNF-α in skin cells (skin cells): reverse the anti-apoptotic function of TNF-α
Activity in the modified mouse tail test (modified mouse tail test): anti-psoriatic activity
Activation of NF-κB (NF-κB): down-modulated
